Columns and labels:
[1] = Stability of purified CBDA in solution; type: physicochemical
Excerpt: This undesirable decarboxylation of the purified material might be minimised by manipulation of CBDA at sub-ambient temperatures.

[2] = target: CB2 (Peripheral receptors) (Homo sapiens, UniProt P34972); settings: cited from earlier work
Chain of CB2 (Peripheral receptors) (P34972 whole entry, species assumed): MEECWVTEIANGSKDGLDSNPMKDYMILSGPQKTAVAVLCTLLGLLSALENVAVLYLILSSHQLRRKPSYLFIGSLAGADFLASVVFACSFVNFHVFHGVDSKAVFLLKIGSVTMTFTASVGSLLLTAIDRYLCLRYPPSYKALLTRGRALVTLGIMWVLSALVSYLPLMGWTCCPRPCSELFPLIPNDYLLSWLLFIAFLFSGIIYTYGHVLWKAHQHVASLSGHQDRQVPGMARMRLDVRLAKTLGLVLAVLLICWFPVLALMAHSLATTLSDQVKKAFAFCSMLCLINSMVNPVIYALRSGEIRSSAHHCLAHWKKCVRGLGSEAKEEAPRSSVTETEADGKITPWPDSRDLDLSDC

Compound	decarboxylation in solution (CBDA→CBD+CO2) [1]	binding to CB2 receptors [2]
C=C(C)[C@@H]1CCC(C)=C[C@H]1c1c(O)cc(CCCCC)c(C(=O)O)c1O [CBDA]	slowly decarboxylates in solution	
CCCCCc1cc(O)c2c(c1)OC(C)(C)[C@@H]1CCC(C)=C[C@@H]21 [THC, delta^9-tetrahydrocannabinol]		bound with high avidity

Reference: patent US8034843B2, “Compositions comprising cannabinoids for treatment of nausea, vomiting, emesis, motion sickness or like conditions” (priority 2002, dated 2011)
